Test results: patent US20230039836A1, “AROMATIC SULPHONAMIDES DERIVATIVES THAT INHIBITS PDI A3, THEIR SYNTHESIS AND USE” (Uniwersytet Jagiellonski, priority 2020, published 2023)

Assays:
[1] = system: MDA-MB-231 (human mammary breast adenocarcinoma); test: MTT antiproliferative assay, 48 h; format: cell-based; details: Homo sapiens, MDA-MB-231, 48-hour exposition, read-out: Cytotoxicity, IC50, µM MDA-MB-231
Procedure: (§1) About 2000-4000 cells per well (depending on line nature) were placed in 96-well plates and after 24 h compounds were added to the wells. Untreated cells were used as a control. The plates were incubated for 48 h, 37° C., 5% CO2. The number of surviving cells was determined using 3-(4,5-dimethylthiazol-2-yl)-2,5-diphenyltetrazolinium bromide (MTT). MTT-test: after incubating culture medium was removed and 200 µL fresh medium with 20 µL MTT (2 mg/mL in HBSS) was added in each well of the plate. After incubation (3 hr., 37° C., 5% CO2), the medium with MTT was removed and 200 µL DMSO were added at once to each sample. The samples were tested at 540 nm on Thermo Scientific Multiskan EX microplate photometer. The half-maximal inhibitory concentration (IC50) of each compound was calculated using Graph Pad Prism® 3.0.

PDI A1 = molecular target: T1, PDI A1 (Homo sapiens, UniProt P07237); test: Insulin turbidometric assay, inhibition of PDI A1; format: biochemical; details: insulin reduction, turbidity at 650 nm, 60 min incubation at 37° C.; read-out: Inhibition of PDI A1 (EC 50)
T1 construct: purchased Mybiosource; host or cells: E. coli
Procedure: The inhibitory effects compounds of invention on activity of PDI A1 was assess based on the insulin turbidometric assay. Enzymatic activity of PDIA1 was confirmed by measuring the turbidity increase at 650 nm due to insulin reduction. The assay mixture was prepared by addition 10 ug/ml PDIA1 (E.coli recombinant protein; Mybiosource), 0.1 mM phosphate buffer (pH7.6), 1 mM EDTA, 0.087 mM DTT and with or without tested compound and was incubated for 60 min, at 37° C. Reaction was started by addition insulin and DTT. Final concentration of insulin and DTT in assay mixture was 0.15 mM and 0.174 mM, respectively. Turbidity was detected at 650 nm against reference samples without PDI A1s. The measurements were performed at 650 nm using 120-s recordings.

[2] = system: Caco-2 (human colon adenocarcinoma); test: MTT antiproliferative assay, 48 h; format: cell-based; details: Homo sapiens, Caco-2, 48-hour exposition, read-out: Cytotoxicity, IC50, µM CaCo-2
Procedure: as §1

[3] = system: HT-1080 (human fibrosarcoma); test: MTT antiproliferative assay, 48 h; format: cell-based; details: 48-hour exposition, read-out: Cytotoxicity, IC50, µM HT-1080
Procedure: as §1

[4] = system: MCF-7 (human breast adenocarcinoma, estrogen-positive); test: MTT antiproliferative assay, 48 h; format: cell-based; details: Homo sapiens, MCF7, 48-hour exposition, read-out: Cytotoxicity, IC50, µM MCF-7
Procedure: as §1

[5] = system: Lewis Lung Carcinoma (LLC); test: Murine model of Lewis Lung Carcinoma; format: in vivo, mice; details: in vivo, FIG. 5; for Effect on animal weight: no evident toxicity
Procedure: To confirm anticancer activity of selected compounds of invention, PDI A1-inhibitors in vivo, selected compounds of invention were tested in the murine model of Lewis Lung Carcinoma (LLC). The Lewis Lung Carcinoma (LLC) cell line was obtained from the ATCC collection and was cultured in a humidified atmosphere of 5% CO2 at 37° using Dulbecco’s modified Eagle’s medium (DMEM) that contained 10% bovine serum (Sigma). Female (6-8 weeks old) C57BL/6 mice (purchased from Envigo RMS. BV., Nederland) were acclimated for one week and were fed with animal chow and water ad libitum. The C57BL/6 mice were injected s.c. with 0.5 × 10^5 LLC cells per mice in 100 µL PBS. Compounds were dissolved in DMSO and then 0.9% NaCl (DMSO final concentration 1%) were added. In each treatment group, i.p. injections of 100 µl compound were started on 1 day after tumor inoculation. Control animals injected with equal volume of 0.9% NaCl with 1% DMSO administered in the same schedule as other groups. Tumor larger radius (a) and smaller radius (b) were measured by calipers. The tumor volume (Tv) was calculated according the following formulaTv = V=4 • ab2/3. The mice in control group were sacrificed 17 days after tumor establishment. Tumor tissues were dissected, weighed and frozen in OCT compound.

T1 sequence (P07237 18-508, species assumed): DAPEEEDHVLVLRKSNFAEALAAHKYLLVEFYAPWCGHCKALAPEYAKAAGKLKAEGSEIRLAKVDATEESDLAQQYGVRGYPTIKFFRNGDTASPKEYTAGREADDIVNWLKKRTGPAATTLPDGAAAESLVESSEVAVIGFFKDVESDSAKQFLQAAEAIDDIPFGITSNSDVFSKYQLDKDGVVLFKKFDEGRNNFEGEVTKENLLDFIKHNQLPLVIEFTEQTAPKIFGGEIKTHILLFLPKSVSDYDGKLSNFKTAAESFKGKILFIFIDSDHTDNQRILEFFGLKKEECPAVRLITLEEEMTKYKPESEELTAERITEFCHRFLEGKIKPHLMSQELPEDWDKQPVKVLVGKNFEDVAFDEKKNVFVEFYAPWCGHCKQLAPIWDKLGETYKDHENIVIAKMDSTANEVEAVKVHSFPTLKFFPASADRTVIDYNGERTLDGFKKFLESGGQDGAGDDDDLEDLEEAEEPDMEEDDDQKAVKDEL

SMILES | IC50 [1] [µM] | EC50 (PDI A1) [µM] | IC50 [2] [µM] | IC50 [4] [µM] | other results
COC(=O)C1CN1S(=O)(=O)c1ccccc1C (stereo not drawn) [Compound C-3320, Methyl 1-(o-tolylsulfonyl)aziridine-2-carboxylate] | 380 ± 15 |  |  |  | 
COC(=O)[C@H]1CN1S(=O)(=O)c1ccc(C)cc1 (stereo partly drawn) [Compound C-3539, Methyl (2R)-1-(p-tolylsulfonyl)aziridine-2-carboxylate] | 40 ± 5 | 29 | 23 ± 1 | 113 ± 6 | IC50 [3]: 20 ± 1 µM
CN(C)C(=O)C1CN1S(=O)(=O)c1ccc(F)cc1F (stereo not drawn) [Compound C-3403, 1-(2,4-Difluorophenyl)sulfonyl-N,N-dimethyl-aziridine-2-carboxamide] |  | 12.3 |  |  | 
CN(C)C(=O)C1CN1S(=O)(=O)c1ccc(N(C)C)c2ccccc12 (stereo not drawn) [Compound C-3385, 1-[[4-(Dimethylamino)-1-naphthyl]sulfonyl] -N,N-dimethylaziridine-2-carboxamide] |  | 0.7 |  |  | 
CC(C)(C)c1ccc(S(=O)(=O)N2CC2C(N)=O)cc1 (stereo not drawn) [Compound C-3591, 1-(4-tert-Butylphenyl)sulfonylaziridine-2-carboxamide] |  | 11 |  |  | 
COC(=O)C1CN1S(=O)(=O)c1ccc(NC(C)=O)cc1 (stereo not drawn) [Compound C-3308, Methyl 1-(4-acetamidophenyl)sulfonylaziridine-2-carboaylate] | > 500 | 18 | 100 ± 5 | 485 ± 32 | IC50 [3]: 120 ± 6 µM
Cc1ccc(S(=O)(=O)N2CC2C(=O)O)cc1 (stereo not drawn) [Compound C-3612, Lithium 1-tosylaziridine-2-carboxylate] |  | 54.4 |  |  | 
COC(=O)C1CN1S(=O)(=O)c1ccco1 (stereo not drawn) [Compound C-3346, Methyl 1-(2-furylsulfonyl)aziridine-2-carboxylate] | > 200 | > 200 | 17 ± 2 | 458 ± 6 | IC50 [3]: 169 ± 11 µM
COC(=O)C1CN1S(=O)(=O)c1cccc2ccccc12 (stereo not drawn) [Compound C-3311, Methyl 1-(1-naphthylsulfonyl)aziridine-2-carboxylate] |  | 5 |  |  | 
Cc1ccc(S(=O)(=O)N2CC2C=O)cc1 (stereo not drawn) [Compound C-3262, 1-(p-Tolylsulfonyl)aziridine-2-carbaldehyde] | 6.8 ± 0.8 | 160 | 13.5 ± 0.8 | 7.2 ± 0.8 | IC50 [3]: 3.8 ± 0.3 µM
CN(C)C(=O)C1CN1S(=O)(=O)c1cccc2cc(N(C)C)ccc12 (stereo not drawn) [Compound C-3377, 1-[[6-(Dimethylamino)-1-naphthyl]sulfonyl]-N,N-dimethylaziridine-2-carboxamide] |  |  |  | 4.8 ± 0.1 | 
CCCCCCc1ccc(S(=O)(=O)N2CC2C(=O)N2CCOCC2)cc1 (stereo not drawn) [Compound C-3517, [1-(4-Hexylphenyl)sulfonylaziridin-2-yl]-morpholino-methanone] | 12 ± 1 |  |  |  | 
COC(=O)C1CN1S(=O)(=O)c1ccc2cc(C)ccc2c1 (stereo not drawn) [Compound C-3329, Methyl 1-[(6-methyl-2-naphthyl)sulfonyl]aziridine-2-carboxylate] |  |  |  |  | Effect on tumour volume [5]: diminished tumour volume; Effect on animal weight [5]: did not modified animal weight
NC(=O)C1CN1S(=O)(=O)c1ccc(C(F)(F)F)cc1 (stereo not drawn) [Compound C-3324, 1-[4-(Trifluoromethyl)phenyl] sulfonylaziridine-2-carboxamide] | 102 ± 12 |  | 27 ± 3 | 156 ± 9 | IC50 [3]: 510 ± 3 µM
COC(=O)C1CN1S(=O)(=O)c1ccc(-c2ccccc2)cc1 (stereo not drawn) [Compound C-3291, Methyl 1-(4-phenylphenyl)sulfonylaziridine-2-carboxylate] |  | 0.4 |  |  | 
COC(=O)[C@@H]1CN1S(=O)(=O)c1cccc2cc(N(C)C)ccc12 (stereo partly drawn) [Compound C-3548, Methyl (2S)-1-[[6-(dimethylamino)-1-naphthyl]sulfonyl]aziridine-2-carboxylate] | 57 ± 9 | 6 | 45 ± 13 | 37 ± 3 | IC50 [3]: 9.2 ± 1 µM

SMILES | IC50 [1] [µM] | EC50 (PDI A1) [µM] | IC50 [2] [µM] | IC50 [4] [µM] | other results
CN(C)C(=O)C1CN1S(=O)(=O)c1ccc(C(C)(C)C)cc1 (stereo not drawn) [Compound C-3594, 1-(4-tert-Butylphenyl)sulfonyl-N,N-dimethyl-aziridine-2-carboxamide] |  | 26 |  |  | 
CCCCCCCCCCCCc1ccc(S(=O)(=O)N2CC2C(=O)OC)cc1 (stereo not drawn) [Compound C-3270, Methyl 1-(4-dodecylphenyl)sulfonylaziridine-2-carboxylate] |  | 0.8 |  |  | 
CCCCc1ccc(S(=O)(=O)N2CC2C(=O)N(C)C)cc1 (stereo not drawn) [Compound C-3362, 1-(4-Butylphenyl)sulfonyl-N,N-dimethyl-aziridine-2-carboxamide] |  | 0.5 |  |  | 
COC(=O)C1CN1S(=O)(=O)c1ccc(C(C)(C)C)cc1 (stereo not drawn) [Compound C-3290, Methyl 1-(4-tert-butylphenyl)sulfonylaziridine-2-carboxylate] |  | 0.4 |  | 29 ± 4 | 
COC(=O)C1CN1S(=O)(=O)c1ccc(C(F)(F)F)cc1 (stereo not drawn) [Compound C-3256, Methyl 1-[4-(trifluoromethyl)phenyl]sulfonylaziridine-2-carboxylate] |  | 0.5 |  |  | 
CCCCCCCc1ccc(S(=O)(=O)N2CC2C(=O)OC)cc1 (stereo not drawn) [Compound C-3288, Methyl 1-(4-heptylphenyl)sulfonylaziridine-2-carboxylate] |  | 0.4 |  |  | 
COC(=O)C1CN1S(=O)(=O)c1ccc2cc(OC)ccc2c1 (stereo not drawn) [Compound C-3327, Methyl 1-[(6-methoxy-2-naphthyl)sulfonyl]aziridine-2-carboxylate] |  |  | 150 ± 10 |  | 
COC(=O)C1CN1S(=O)(=O)c1cccnc1 (stereo not drawn) [Compound C-3559, Methyl 1-(3-pyridylsulfonyl)aziridine-2-carboxylate] | 128 ± 8 | 10.6 | 260 ± 55 | 154 ± 25 | IC50 [3]: 372 ± 23 µM
CC(=O)C1CN1S(=O)(=O)c1ccc(C)cc1 (stereo not drawn) [Compound C-3263, 1-[1-(p-Tolylsulfonyl)aziridin-2-yl]ethanone] | 9.1 ± 0.5 | 140 | 29 ± 0.8 | 17 ± 0.2 | IC50 [3]: 7.6 ± 0.2 µM
CCCCCCc1ccc(S(=O)(=O)N2CC2C(=O)N(C)C)cc1 (stereo not drawn) [Compound C-3369, 1-(4-Hexylphenyl)sulfonyl-N,N-dimethyl-aziridine-2-carboxamide] |  | 0.04 |  |  | 
COC(=O)C1CN1S(=O)(=O)c1ccc2cc(N(C)C)ccc2c1 (stereo not drawn) [Compound C-3397, Methyl 1-[[6-(dimethylamino)-2-naphthyl]sulfonyl]aziridine-2-carboxylate] | 38 ± 2 |  |  |  | 
CCCCCc1ccc(S(=O)(=O)N2CC2C(=O)OC)cc1 (stereo not drawn) [Compound C-3281, Methyl 1-(4-pentylphenyl)sulfonylaziridine-2-carboxylate] |  |  |  |  | Effect on tumour volume [5]: diminished tumour volume; Effect on animal weight [5]: did not modified animal weight
CCCc1ccc(S(=O)(=O)N2CC2C(=O)OC)cc1 (stereo not drawn) [Compound C-3299, Methyl 1-(4-propylphenyl)sulfonylaziridine-2-carboxylate] |  | 0.8 |  |  | 
CN(C)C(=O)C1CN1S(=O)(=O)c1ccc(N(C)C)cc1 (stereo not drawn) [Compound C-3357, 1-[4-(Dimethylamino)phenyl] sulfonyl-N,N-dimethyl-aziridine-2-carboxamide] | 25 ± 6 |  | 61 ± 3 | 295 ± 9 | IC50 [3]: 30 ± 1 µM
Cc1ccc(S(=O)(=O)N2CC2C(N)=O)cc1 (stereo not drawn) [Compound C-3220, 1-(p-Tolylsulfonyl)aziridine-2-carboxamide] |  | > 200 |  |  | 
CCCCOc1ccc(S(=O)(=O)N2CC2C(=O)OC)cc1 (stereo not drawn) [Compound C-3271, Methyl 1-(4-butoxyphenyl)sulfonylaziridine-2-carboxylate] |  | 1 |  |  | 
